Experimental data: ChEMBL document CHEMBL3797178, “Synthesis, antimycobacterial and antibacterial activity of 1-(6-amino-3,5-difluoropyridin-2-yl)fluoroquinolone derivatives containing an oxime functional moiety” (2016)
In brackets after ≈: the same amount, converted by molar mass.

Experiments:
Format in all cases: functional
Staphylococcus aureus [1] = test: Antibacterial activity against methicillin-resistant Staphylococcus aureus 14-4 after 18 to 24 hrs by CLSI M100-S11 method
Pseudomonas aeruginosa [2] = test: Antibacterial activity against Pseudomonas aeruginosa 14-15 after 18 to 24 hrs by CLSI M100-S11 method
[3] = test system: Staphylococcus epidermidis; test: Antibacterial activity against methicillin-sensitive Staphylococcus epidermidis 14-4 after 18 to 24 hrs by CLSI M100-S11 method
Klebsiella pneumoniae [4] = test: Antibacterial activity against Klebsiella pneumoniae 14-4 after 18 to 24 hrs by CLSI M100-S11 method
Staphylococcus aureus [5] = test: Antibacterial activity against methicillin-resistant Staphylococcus aureus 14-5 after 18 to 24 hrs by CLSI M100-S11 method
Enterococcus faecalis [6] = test: Antibacterial activity against Enterococcus faecalis 14-2 after 18 to 24 hrs by CLSI M100-S11 method
Klebsiella pneumoniae [7] = test: Antibacterial activity against extended-spectrum beta-lactamase-producing Klebsiella pneumoniae 14-19 after 18 to 24 hrs by CLSI M100-S11 method
Enterococcus faecium [8] = test: Antibacterial activity against Enterococcus faecium 14-1 after 18 to 24 hrs by CLSI M100-S11 method
Pseudomonas aeruginosa [9] = test: Antibacterial activity against Pseudomonas aeruginosa 14-19 after 18 to 24 hrs by CLSI M100-S11 method
Klebsiella pneumoniae [10] = test: Antibacterial activity against Klebsiella pneumoniae 14-2 after 18 to 24 hrs by CLSI M100-S11 method
Enterococcus faecalis [11] = test: Antibacterial activity against Enterococcus faecalis 14-1 after 18 to 24 hrs by CLSI M100-S11 method
[12] = test system: Staphylococcus epidermidis; test: Antibacterial activity against methicillin-sensitive Staphylococcus epidermidis 14-6 after 18 to 24 hrs by CLSI M100-S11 method
[13] = test system: Staphylococcus epidermidis; test: Antibacterial activity against methicillin-sensitive Staphylococcus epidermidis 14-2 after 18 to 24 hrs by CLSI M100-S11 method
[14] = test system: Staphylococcus epidermidis; test: Antibacterial activity against methicillin-resistant Staphylococcus epidermidis 14-22 after 18 to 24 hrs by CLSI M100-S11 method
Pseudomonas aeruginosa [15] = test: Antibacterial activity against Pseudomonas aeruginosa 14-9 after 18 to 24 hrs by CLSI M100-S11 method
Enterococcus faecalis [16] = test: Antibacterial activity against Enterococcus faecalis 14-3 after 18 to 24 hrs by CLSI M100-S11 method
Staphylococcus aureus [17] = test: Antibacterial activity against methicillin-sensitive Staphylococcus aureus 14-4 after 18 to 24 hrs by CLSI M100-S11 method
Staphylococcus aureus [18] = test: Antibacterial activity against Staphylococcus aureus CMCC 26003 after 18 to 24 hrs by CLSI M100-S11 method
Escherichia coli [19] = test: Antibacterial activity against extended-spectrum beta-lactamase-producing Escherichia coli 14-1 after 18 to 24 hrs by CLSI M100-S11 method
Escherichia coli [20] = test: Antibacterial activity against Escherichia coli ATCC 25922 after 18 to 24 hrs by CLSI M100-S11 method
Escherichia coli [21] = test: Antibacterial activity against Escherichia coli 14-2 after 18 to 24 hrs by CLSI M100-S11 method
Klebsiella pneumoniae [22] = test: Antibacterial activity against Klebsiella pneumoniae 14-3 after 18 to 24 hrs by CLSI M100-S11 method
Pseudomonas aeruginosa [23] = test: Antibacterial activity against Pseudomonas aeruginosa 14-14 after 18 to 24 hrs by CLSI M100-S11 method
[24] = test system: Mycobacterium tuberculosis; test: Antimycobacterial activity against Mycobacterium tuberculosis H37Rv ATCC 27294 after 3 days by microplate Alamar Blue assay; settings: H37Rv ATCC 27294, 72 h
Streptococcus pneumoniae = test: Antibacterial activity against Streptococcus pneumoniae ATCC 19615 after 18 to 24 hrs by CLSI M100-S11 method
Klebsiella pneumoniae [25] = test: Antibacterial activity against extended-spectrum beta-lactamase-producing Klebsiella pneumoniae 14-17 after 18 to 24 hrs by CLSI M100-S11 method
Staphylococcus aureus [26] = test: Antibacterial activity against methicillin-sensitive Staphylococcus aureus 14-2 after 18 to 24 hrs by CLSI M100-S11 method
Escherichia coli [27] = test: Antibacterial activity against Escherichia coli 14-1 after 18 to 24 hrs by CLSI M100-S11 method
Enterococcus faecium [28] = test: Antibacterial activity against Enterococcus faecium 14-2 after 18 to 24 hrs by CLSI M100-S11 method
Staphylococcus aureus [29] = test: Antibacterial activity against methicillin-sensitive Staphylococcus aureus 14-3 after 18 to 24 hrs by CLSI M100-S11 method
Pseudomonas aeruginosa [30] = test: Antibacterial activity against Pseudomonas aeruginosa 14-16 after 18 to 24 hrs by CLSI M100-S11 method
Pseudomonas aeruginosa [31] = test: Antibacterial activity against Pseudomonas aeruginosa ATCC 27853 after 18 to 24 hrs by CLSI M100-S11 method
Klebsiella pneumoniae [32] = test: Antibacterial activity against extended-spectrum beta-lactamase-producing Klebsiella pneumoniae 14-18 after 18 to 24 hrs by CLSI M100-S11 method
[33] = test system: Staphylococcus epidermidis; test: Antibacterial activity against methicillin-resistant Staphylococcus epidermidis 14-37 after 18 to 24 hrs by CLSI M100-S11 method
Klebsiella pneumoniae [34] = test: Antibacterial activity against Klebsiella pneumoniae 14-1 after 18 to 24 hrs by CLSI M100-S11 method
Escherichia coli [35] = test: Antibacterial activity against extended-spectrum beta-lactamase-producing Escherichia coli 14-2 after 18 to 24 hrs by CLSI M100-S11 method

Compound	MIC (Staphylococcus aureus [1])	MIC (Pseudomonas aeruginosa [2])	MIC [3]	MIC (Klebsiella pneumoniae [4])	MIC (Staphylococcus aureus [5])	MIC (Enterococcus faecalis [6])	MIC (Klebsiella pneumoniae [7])	MIC (Enterococcus faecium [8])	MIC (Pseudomonas aeruginosa [9])	MIC (Klebsiella pneumoniae [10])	MIC (Enterococcus faecalis [11])	MIC [12]	MIC [13]	MIC [14]	MIC (Pseudomonas aeruginosa [15])	MIC (Enterococcus faecalis [16])	MIC (Staphylococcus aureus [17])	MIC (Staphylococcus aureus [18])	MIC (Escherichia coli [19])	MIC [24]	also measured
CO/N=C1\CCN(c2nc3c(cc2F)c(=O)c(C(=O)O)cn3-c2nc(N)c(F)cc2F)CC1O (configuration not stated)	> 128 µg/mL	128 µg/mL (≈ 268 µM)	> 128 µg/mL	> 128 µg/mL	128 µg/mL (≈ 268 µM)	> 128 µg/mL	> 128 µg/mL	> 128 µg/mL	128 µg/mL (≈ 268 µM)	> 128 µg/mL	> 128 µg/mL	> 128 µg/mL	> 128 µg/mL	> 128 µg/mL	128 µg/mL (≈ 268 µM)	> 128 µg/mL	4 µg/mL (≈ 8.36 µM)	2 µg/mL (≈ 4.18 µM)	64 µg/mL (≈ 134 µM)	30.7 µg/mL (≈ 64.3 µM)	MIC (Escherichia coli [20]): 64 µg/mL (≈ 134 µM); MIC (Escherichia coli [21]): > 128 µg/mL; MIC (Klebsiella pneumoniae [22]): > 128 µg/mL; MIC (Pseudomonas aeruginosa [23]): 128 µg/mL (≈ 268 µM); MIC (Streptococcus pneumoniae): 64 µg/mL (≈ 134 µM); MIC (Klebsiella pneumoniae [25]): > 128 µg/mL; MIC (Staphylococcus aureus [26]): 2 µg/mL (≈ 4.18 µM); MIC (Escherichia coli [27]): > 128 µg/mL; MIC (Enterococcus faecium [28]): 64 µg/mL (≈ 134 µM); MIC (Staphylococcus aureus [29]): 4 µg/mL (≈ 8.36 µM); MIC (Pseudomonas aeruginosa [30]): 128 µg/mL (≈ 268 µM); MIC (Pseudomonas aeruginosa [31]): 128 µg/mL (≈ 268 µM); MIC (Klebsiella pneumoniae [32]): > 128 µg/mL; MIC [33]: > 128 µg/mL; MIC (Klebsiella pneumoniae [34]): > 128 µg/mL; MIC (Escherichia coli [35]): > 128 µg/mL
Nc1nc(-n2cc(C(=O)O)c(=O)c3cc(F)c(N4CC/C(=N\OCc5ccccc5)C(N)C4)nc32)c(F)cc1F (configuration not stated)	> 128 µg/mL	128 µg/mL (≈ 231 µM)	> 128 µg/mL	> 128 µg/mL	> 128 µg/mL	128 µg/mL (≈ 231 µM)	> 128 µg/mL	> 128 µg/mL	128 µg/mL (≈ 231 µM)	> 128 µg/mL	128 µg/mL (≈ 231 µM)	> 128 µg/mL	> 128 µg/mL	> 128 µg/mL	128 µg/mL (≈ 231 µM)	> 128 µg/mL	8 µg/mL (≈ 14.5 µM)	8 µg/mL (≈ 14.5 µM)	128 µg/mL (≈ 231 µM)	> 32 µg/mL	MIC (Escherichia coli [20]): 64 µg/mL (≈ 116 µM); MIC (Escherichia coli [21]): > 128 µg/mL; MIC (Klebsiella pneumoniae [22]): > 128 µg/mL; MIC (Pseudomonas aeruginosa [23]): 128 µg/mL (≈ 231 µM); MIC (Streptococcus pneumoniae): 64 µg/mL (≈ 116 µM); MIC (Klebsiella pneumoniae [25]): > 128 µg/mL; MIC (Staphylococcus aureus [26]): 8 µg/mL (≈ 14.5 µM); MIC (Escherichia coli [27]): > 128 µg/mL; MIC (Enterococcus faecium [28]): 64 µg/mL (≈ 116 µM); MIC (Staphylococcus aureus [29]): 4 µg/mL (≈ 7.23 µM); MIC (Pseudomonas aeruginosa [30]): 128 µg/mL (≈ 231 µM); MIC (Pseudomonas aeruginosa [31]): 128 µg/mL (≈ 231 µM); MIC (Klebsiella pneumoniae [32]): > 128 µg/mL; MIC [33]: > 128 µg/mL; MIC (Klebsiella pneumoniae [34]): > 128 µg/mL; MIC (Escherichia coli [35]): > 128 µg/mL
Nc1nc(-n2cc(C(=O)O)c(=O)c3cc(F)c(N4CC/C(=N\OCc5ccccc5)C(O)C4)nc32)c(F)cc1F (configuration not stated)	> 128 µg/mL	128 µg/mL (≈ 231 µM)	> 128 µg/mL	> 128 µg/mL	> 128 µg/mL	> 128 µg/mL	> 128 µg/mL	> 128 µg/mL	128 µg/mL (≈ 231 µM)	> 128 µg/mL	> 128 µg/mL	> 128 µg/mL	> 128 µg/mL	> 128 µg/mL	128 µg/mL (≈ 231 µM)	> 128 µg/mL	4 µg/mL (≈ 7.21 µM)	2 µg/mL (≈ 3.61 µM)	128 µg/mL (≈ 231 µM)	> 32 µg/mL	MIC (Escherichia coli [20]): 16 µg/mL (≈ 28.9 µM); MIC (Escherichia coli [21]): > 128 µg/mL; MIC (Klebsiella pneumoniae [22]): 64 µg/mL (≈ 115 µM); MIC (Pseudomonas aeruginosa [23]): 128 µg/mL (≈ 231 µM); MIC (Streptococcus pneumoniae): 32 µg/mL (≈ 57.7 µM); MIC (Klebsiella pneumoniae [25]): > 128 µg/mL; MIC (Staphylococcus aureus [26]): 4 µg/mL (≈ 7.21 µM); MIC (Escherichia coli [27]): > 128 µg/mL; MIC (Enterococcus faecium [28]): 32 µg/mL (≈ 57.7 µM); MIC (Staphylococcus aureus [29]): 4 µg/mL (≈ 7.21 µM); MIC (Pseudomonas aeruginosa [30]): 128 µg/mL (≈ 231 µM); MIC (Pseudomonas aeruginosa [31]): 128 µg/mL (≈ 231 µM); MIC (Klebsiella pneumoniae [32]): > 128 µg/mL; MIC [33]: > 128 µg/mL; MIC (Klebsiella pneumoniae [34]): > 128 µg/mL; MIC (Escherichia coli [35]): > 128 µg/mL
CO/N=C1\CCN(c2nc3c(cc2F)c(=O)c(C(=O)O)cn3-c2nc(N)c(F)cc2F)CC1N (configuration not stated)	> 128 µg/mL	128 µg/mL (≈ 268 µM)	> 128 µg/mL	> 128 µg/mL	> 128 µg/mL	> 128 µg/mL	> 128 µg/mL	> 128 µg/mL	128 µg/mL (≈ 268 µM)	> 128 µg/mL	> 128 µg/mL	> 128 µg/mL	> 128 µg/mL	> 128 µg/mL	128 µg/mL (≈ 268 µM)	> 128 µg/mL	16 µg/mL (≈ 33.5 µM)	8 µg/mL (≈ 16.8 µM)	> 128 µg/mL	> 32 µg/mL	MIC (Escherichia coli [20]): 16 µg/mL (≈ 33.5 µM); MIC (Escherichia coli [21]): > 128 µg/mL; MIC (Klebsiella pneumoniae [22]): > 128 µg/mL; MIC (Pseudomonas aeruginosa [23]): 128 µg/mL (≈ 268 µM); MIC (Streptococcus pneumoniae): 64 µg/mL (≈ 134 µM); MIC (Klebsiella pneumoniae [25]): > 128 µg/mL; MIC (Staphylococcus aureus [26]): 8 µg/mL (≈ 16.8 µM); MIC (Escherichia coli [27]): > 128 µg/mL; MIC (Enterococcus faecium [28]): 64 µg/mL (≈ 134 µM); MIC (Staphylococcus aureus [29]): 8 µg/mL (≈ 16.8 µM); MIC (Pseudomonas aeruginosa [30]): 128 µg/mL (≈ 268 µM); MIC (Pseudomonas aeruginosa [31]): 128 µg/mL (≈ 268 µM); MIC (Klebsiella pneumoniae [32]): > 128 µg/mL; MIC [33]: > 128 µg/mL; MIC (Klebsiella pneumoniae [34]): > 128 µg/mL; MIC (Escherichia coli [35]): > 128 µg/mL
O=C(O)c1cn(C2CC2)c2cc(N3CCNCC3)c(F)cc2c1=O [CIPROFLOXACIN]																				0.25 µg/mL (≈ 0.754 µM)	
NNC(=O)c1ccncc1 [ISONIAZID]																				0.05 µg/mL (≈ 0.365 µM)	
CO[C@H]1/C=C/O[C@@]2(C)Oc3c(C)c(O)c4c(O)c(c(/C=N/N5CCN(C)CC5)c(O)c4c3C2=O)NC(=O)/C(C)=C\C=C\[C@H](C)[C@H](O)[C@@H](C)[C@@H](O)[C@@H](C)[C@H](OC(C)=O)[C@@H]1C [RIFAMPIN]																				0.05 µg/mL (≈ 0.0608 µM)	
